{
  "source": "paper PMC11873639",
  "about": "(Acta Pharmaceutica Sinica. B, 2024)",
  "key": {"LAD2 cells [1]": {"tested_on": "LAD2 cells", "assay": "β-hexosaminidase release induced by C48/80 in LAD2 cells", "format": "cell-based, Human", "conditions": "for IC50: Homo sapiens, LAD2, read-out: Experimental pIC50 (converted); for antiallergic activity (β-hexosaminidase release inhibition): LAD2 cells, 10 μmol/L"}, "LAD2 cells [2]": {"tested_on": "LAD2 cells", "assay": "LAD2 cell viability", "format": "cell-based, Human", "conditions": "10 μmol/L"}, "MRGPRX2": {"target": "T1, MRGPRX2 (Homo sapiens, UniProt Q96LB1)", "T1 sequence (Q96LB1 1-330)": "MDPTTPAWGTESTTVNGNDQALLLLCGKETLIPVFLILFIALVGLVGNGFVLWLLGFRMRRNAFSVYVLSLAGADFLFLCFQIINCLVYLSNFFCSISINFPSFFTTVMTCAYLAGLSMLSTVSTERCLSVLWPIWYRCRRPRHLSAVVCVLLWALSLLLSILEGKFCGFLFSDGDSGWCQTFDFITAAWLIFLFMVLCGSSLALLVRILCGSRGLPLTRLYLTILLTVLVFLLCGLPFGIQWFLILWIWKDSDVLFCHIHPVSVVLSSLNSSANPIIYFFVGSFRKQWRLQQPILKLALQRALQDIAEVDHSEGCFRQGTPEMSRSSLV", "conditions": "cited from earlier work"}, "C57BL/6 mice": {"tested_on": "C57BL/6 mice", "assay": "OVA-induced antigen-induced pulmonary inflammation", "format": "in vivo", "conditions": "AIPI mice"}, "LAD2 cells [3]": {"tested_on": "LAD2 cells", "assay": "histamine release in vitro induced by C48/80", "format": "cell-based, Human", "conditions": "1 to 10 μmol/L"}, "mice [4]": {"tested_on": "mice", "assay": "body temperature after C48/80", "format": "in vivo", "conditions": "10 mg/kg"}, "mice [5]": {"tested_on": "mice", "assay": "serum histamine release in vivo after C48/80", "conditions": "mice, 1, 5 and 10 mg/kg"}, "LAD2 cells [6]": {"tested_on": "LAD2 cells", "assay": "IL-8 release induced by C48/80", "format": "cell-based, Human", "conditions": "LAD2 cells, 1, 5 and 10 μmol/L"}, "mice [7]": {"tested_on": "mice", "assay": "paw swell and Evans blue extravasation induced by C48/80", "format": "in vivo", "conditions": "gavage, 1, 5 and 10 mg/kg"}, "MRGPRX2-HEK293 cells": {"tested_on": "MRGPRX2-HEK293 cells", "assay": "intracellular Ca2+ mobilization assay", "format": "cell-based", "conditions": "MRGPRX2-HEK293 cells, 1, 5, 10 μmol/L"}, "mice [8]": {"tested_on": "mice", "assay": "skin toluidine blue staining", "format": "in vivo", "conditions": "10 mg/kg, C48/80"}},
  "data": [
    {"smiles": "O=C(Nc1ccccc1)Nc1cc(Br)cc(C(F)(F)F)c1", "note": "[Compound A-1023, 1-(3-bromo-5-(trifluoromethyl)phenyl)-3-phenylurea]", "values": [
      {"measurement": "IC50", "setting": "LAD2 cells [1]", "value": 7.94, "unit": "µM"}
    ]},
    {"smiles": "O=C(Nc1ccccc1)Nc1cccc(C(F)(F)F)c1", "note": "[Compound A-4023]", "values": [
      {"measurement": "cytotoxicity on LAD2 cells", "setting": "LAD2 cells [2]", "value": "attenuated cytotoxicity"}
    ]},
    {"smiles": "O=C(Nc1ccc(C(F)(F)F)cc1)Nc1cccc([N+](=O)[O-])c1", "note": "[Compound B-2023]", "values": [
      {"measurement": "IC50", "setting": "LAD2 cells [1]", "value": 0.363, "unit": "µM"}
    ]},
    {"smiles": "O=C(Nc1ccccc1)Nc1ccc(C(F)(F)F)cc1", "note": "[Compound A-3023]", "values": [
      {"measurement": "IC50", "setting": "LAD2 cells [1]", "value": 8.32, "unit": "µM"},
      {"measurement": "antiallergic activity (β-hexosaminidase release inhibition)", "setting": "LAD2 cells [1]; C48/80", "value": "much more potent than A-4023"},
      {"measurement": "cytotoxicity on LAD2 cells", "setting": "LAD2 cells [2]", "value": "attenuated cytotoxicity"}
    ]},
    {"smiles": "O=C(Nc1ccc(C(F)(F)F)cc1)Nc1ccc(S(=O)(=O)O)cc1", "note": "[Compound B-6023]", "values": [
      {"measurement": "antiallergic activity (β-hexosaminidase release inhibition)", "setting": "LAD2 cells [1]; C48/80", "value": "inactivity"}
    ]},
    {"smiles": "C[C@H]1O[C@@H](O[C@H]2CC[C@@]3(C)[C@@H](CC[C@]4(C)[C@@H]3C=C[C@]35OC[C@@]6(CCC(C)(C)C[C@H]63)[C@@H](O)C[C@]54C)[C@]2(C)CO)[C@H](O)[C@@H](O[C@@H]2O[C@H](CO)[C@@H](O)[C@H](O)[C@H]2O)[C@H]1O", "note": "[saikosaponin A]", "values": [
      {"measurement": "IC50", "setting": "MRGPRX2", "value": 640, "unit": "µM"}
    ]},
    {"smiles": "CC(C)=CCOc1c2occc2cc2ccc(=O)oc12", "note": "[imperatorin]", "values": [
      {"measurement": "IC50", "setting": "MRGPRX2", "value": 50, "unit": "µM"}
    ]},
    {"smiles": "O=C(Nc1cccc([N+](=O)[O-])c1)Nc1cccc(C(F)(F)F)c1", "note": "[Compound B-4023]", "values": [
      {"measurement": "IC50", "setting": "LAD2 cells [1]", "value": 0.288, "unit": "µM"}
    ]},
    {"smiles": "O=C(Nc1ccc([N+](=O)[O-])cc1)Nc1cccc(C(F)(F)F)c1", "note": "[Compound B-3023]", "values": [
      {"measurement": "IC50", "setting": "LAD2 cells [1]", "value": 0.832, "unit": "µM"}
    ]},
    {"smiles": "C[C@@H]1C[C@H]2[C@@H]3CCC4=CC(=O)C=C[C@]4(C)[C@@]3(F)[C@@H](O)C[C@]2(C)[C@@]1(O)C(=O)CO", "note": "[Dexamethasone, reference compound]", "values": [
      {"measurement": "airway hyperresponsiveness (AHR) triggered by Mch", "setting": "C57BL/6 mice", "value": "suppressed the AHR"},
      {"measurement": "lung lesions (HE, PAS, MASSON staining)", "setting": "C57BL/6 mice; dose not given", "value": "improved lung lesions"},
      {"measurement": "serum IgE release", "setting": "C57BL/6 mice; dose not given", "value": "almost completely inhibited the excessive release of IgE"}
    ]},
    {"smiles": "O=C(Nc1ccc([N+](=O)[O-])cc1)Nc1ccc(C(F)(F)F)cc1", "note": "[Compound B-1023]", "values": [
      {"measurement": "histamine release from LAD2 cells induced by C48/80", "setting": "LAD2 cells [3]", "value": "inhibited the histamine release"},
      {"measurement": "IC50", "setting": "LAD2 cells [1]", "value": 0.17, "unit": "µM"},
      {"measurement": "inhibition of β-hexosaminidase release", "setting": "LAD2 cells [1]; LAD2 cells, 1, 5 and 10 μmol/L, C48/80", "value": "the most potential antiallergic ability"},
      {"measurement": "body temperature drop induced by C48/80", "setting": "mice [4]", "value": "significantly attenuated the body temperature drop"},
      {"measurement": "Th2 cytokine (IL-5 and IL-13) release in BALF", "setting": "C57BL/6 mice", "value": "obviously inhibited"},
      {"measurement": "airway hyperresponsiveness (AHR) triggered by Mch", "setting": "C57BL/6 mice", "value": "suppressed the AHR"},
      {"measurement": "number of bronchoalveolar lavage fluid (BALF) cells", "setting": "C57BL/6 mice", "value": "inhibited"},
      {"measurement": "lung lesions (HE, PAS, MASSON staining)", "setting": "C57BL/6 mice; 5 mg/kg oral", "value": "exerted anti-AIPI effects"},
      {"measurement": "lung lesions (HE, PAS, MASSON staining)", "setting": "C57BL/6 mice; 10 mg/kg oral", "value": "significantly attenuated the pathological changes, with a better effect than that of Dex"},
      {"measurement": "serum IgE release", "setting": "C57BL/6 mice; 10 mg/kg oral", "value": "only partially weakened IgE release"},
      {"measurement": "serum histamine release", "setting": "mice [5]", "value": "reduced in a dose-dependent manner"},
      {"measurement": "IL-8 release induced by C48/80", "setting": "LAD2 cells [6]", "value": "reduced the IL-8 release"},
      {"measurement": "cytotoxicity on LAD2 cells", "setting": "LAD2 cells [2]", "value": "nontoxic"},
      {"measurement": "hindpaw swelling and Evans blue exudation rates", "setting": "mice [7]", "value": "decreased in a dose-dependent manner"},
      {"measurement": "C48/80-induced intracellular calcium mobilization", "setting": "MRGPRX2-HEK293 cells", "value": "dose-dependently reduced"},
      {"measurement": "local skin mast cell deformation and degranulation (toluidine blue)", "setting": "mice [8]", "value": "reduced mast cell deformation and degranulation"}
    ]},
    {"smiles": "O=C(Nc1ccccc1)Nc1cccc(Br)c1", "note": "[Compound A-5023]", "values": [
      {"measurement": "IC50", "setting": "LAD2 cells [1]", "value": 21.9, "unit": "µM"},
      {"measurement": "antiallergic activity (β-hexosaminidase release inhibition)", "setting": "LAD2 cells [1]; C48/80", "value": "no antiallergic activity"},
      {"measurement": "cytotoxicity on LAD2 cells", "setting": "LAD2 cells [2]", "value": "no antiallergic activity or cytotoxicity"}
    ]},
    {"smiles": "O=C(Nc1ccc(C(F)(F)F)cc1)Nc1cccc(Br)c1", "note": "[Compound A-2023, 1-(3-bromophenyl)-3-(4-(trifluoromethyl)phenyl) urea]", "values": [
      {"measurement": "IC50", "setting": "LAD2 cells [1]", "value": 1.23, "unit": "µM"},
      {"measurement": "cytotoxicity on LAD2 cells", "setting": "LAD2 cells [2]", "value": "much higher toxicity"}
    ]}
  ]
}
